How the values were obtained:
Type in all cases: cell-based, murine
[1] = tested on: hSSPN-EGFP myotubes (human sarcospan promoter reporter in C2C12); experiment: hSSPN-EGFP reporter myotube assay (high-content imaging); conditions: doses between 3.9 nm to 1 μM, 48 hours (FIG. 10a)
[2] = tested on: hSSPN-Luciferase reporter cells (human sarcospan promoter reporter in C2C12); experiment: hSSPN-Luciferase reporter assay (Bright-Glo); conditions: doses between 3.9 nm to 1 μM, 48 hours (FIG. 10b)
Experimental: C2C12 immortalized murine myoblasts cultured in growth media consisting of DMEM (Gibco) with 20% Fetal Bovine Serum (Sigma-Aldrich) at 37° C. with 5% CO2 were transfected with the hSSPN-EGFP or hSSPN-Luciferase linearized plasmids using Lipofectamine 3000 Transfection Reagent (Thermo Fisher Scientific). Transfected cells were selected using 800 μg/ml of G418 (Sigma-Aldrich) for 4 weeks to generate stable cell lines expressing reporter protein under control of the human SSPN promoter.
hSSPN-Luciferase myoblasts were cultured as described above. After 48 hours of treatment, plates were allowed to equilibrate to room temperature before the media was aspirated using an EL406 combination washer dispenser at room temperature. Bright-Glo luciferase assay system reagent (Promega) and differentiation media were added to cells at a 1:2 dilution using a Multidrop 384. After a 3-minute incubation at room temperature, luminescence signal was quantified using an Envision plate reader (PerkinElmer). The relative luminescence units were analyzed to determine fold change of treated over vehicle treated cells.
Cells were treated for 48 hours beginning at day 2 of differentiation with DMSO (vehicle control, ATCC), felodipine (Sigma), nilvadipine (Sigma), alloxazine (Sigma), GW5074 (Sigma), methylthioadenosine (Santa Cruz Biotechnology), or ezutromid (Cayman Chemicals) diluted in cell type specific differentiation media at doses listed in the figures. For gene expression studies, each treatment was performed in duplicate. For protein studies, each treatment was performed with single or double replicates.

UTRN, utrophin = experiment: UTRN gene expression by qPCR in C2C12 wild-type myotubes; conditions: C2C12 wild-type myotubes, 48 hours, normalized to β-actin (FIG. 12a)
Experimental: RNA from myotubes treated for 48 hours was extracted from cells using Trizol-based (Thermo Fisher Scientific) phase separation. RNA concentrations were determined using a NanoDrop 1000 (Thermo Fisher Scientific) and 750 ng of RNA in a 20 μl reaction was reverse transcribed using iScript cDNA synthesis (Bio-Rad) with the following cycling conditions: 25° C. for 5 minutes, 42° C. for 30 minutes, 85° C. for 5 minutes. For quantitative PCR, SsoFast EvaGreen Supermix (Bio-Rad), 400 nM of each optimized forward and reverse primer (for primer descriptions see Table 1), and cDNA corresponding to 37.5 ng RNA were used to amplify cDNA measured by Applied Biosystems 7300 (Thermo Fisher Scientific) with the following reaction conditions: 55° C. for 2 minutes, 95° C. for 2 minutes, 40 cycles of 95° C. for 10 seconds and 62° C. for 30 seconds, and dissociation stage. Each sample was run in triplicate. Data was analyzed using the ddCT method and normalized to reference gene, GAPDH or β-actin, with vehicle-treated samples serving as the calibrator (relative expression of vehicle control=1). C2C12 cells (American Type Culture Collection) were grown at 37° C. with 5% CO2 in growth media containing DMEM (Gibco) with 20% FBS (Sigma-Aldrich). Upon reaching confluency, the media was replaced with differentiation media containing DMEM with 2% horse serum (Sigma-Aldrich). […]

## CCOC(=O)C1=C(C)NC(C)=C(C(=O)OC)C1c1cccc(Cl)c1Cl (stereo not drawn) [Felodipine, 5-O-ethyl 3-O-methyl 4-(2,3-dichlorophenyl)-2,6-dimethyl-1,4-dihydropyridine-3,5-dicarboxylate]
[1]
  hSSPN-EGFP reporter activity, counterscreen: increased activity
[2]
  hSSPN-Luciferase reporter activity, counterscreen: increased activity
UTRN, utrophin
  utrophin gene expression: increases

Reference: patent US12109204B2, “Methods for treating muscular dystrophies” (The Regents of the University of California, priority 2018, dated 2024)
